Experimental data published in ChEMBL document CHEMBL1144487 (Bioorg Med Chem, 2007).

Legend:
[1] = Cytotoxicity against mouse 3LL cells after 5 days; assay type: cell-based; settings: 120 h, read-out: LC50 (the source's name)
[2] = Differential index, LC50 for rat NRK 52E cells to LC50 for rat K-ras transformed NRK K/1 cells; assay type: ADME, cell-based; settings: NRK 52E cells versus K-ras transformed NRK K/1 cells
[3] = Differential index, LC50 for rat NRK 52E cells to LC50 for mouse 3LL cells; assay type: ADME, cell-based; settings: NRK 52E cells versus 3LL cells
[4] = Differential index, LC50 for rat NRK 52E cells to LC50 for rat N-ras transformed NRK N/4.2 cells; assay type: ADME, cell-based; settings: NRK 52E cells versus N-ras transformed NRK N/4.2 cells
[5] = Cytotoxicity against rat H-ras transformed NRK H/1.2 cells after 5 days; assay type: cell-based; settings: NRK H/1.2, 120 h, read-out: LC50 (the source's name)
[6] = Toxicity in mouse; assay type: organism-based; settings: in vivo
[7] = Differential index, LC50 for rat NRK 52E cells to LC50 for rat H-ras transformed NRK H/1.2 cells; assay type: ADME, cell-based; settings: NRK 52E cells versus H-ras transformed NRK H/1.2 cells
[8] = Cytotoxicity against rat NRK 52E cells after 5 days; assay type: cell-based; settings: read-out: LC50
[9] = Cytotoxicity against rat K-ras transformed NRK K/1 cells after 5 days; assay type: cell-based; settings: NRK K/1, 120 h, read-out: LC50 (the source's name)
[10] = Cytotoxicity against rat N-ras transformed NRK N/4.2 cells after 5 days; assay type: cell-based; settings: NRK N/4.2, 120 h, read-out: LC50 (the source's name)
[11] = tested on: Mus musculus; test: Toxicity in nude mouse at 50 mg/kg/day after 7 days; assay type: organism-based; settings: in vivo, 168 h
[12] = tested on: NRK; test: Inhibition of tumor growth in CD1 nu/nu mouse implanted with rat K-ras transformed NRK K/1 cells at 100 mg/kg/day, ip for 7 days on day 10 relative to control; assay type: functional; settings: route intraperitoneal
[13] = tested on: Mus musculus; test: Toxicity in nude mouse at 100 mg/kg/day after 7 days; assay type: organism-based; settings: in vivo, 168 h
[14] = tested on: Mus musculus; test: Toxicity in nude mouse at 10 mg/kg/day after 7 days; assay type: organism-based; settings: in vivo, 168 h
[15] = tested on: Mus musculus; test: Toxicity in nude mouse at 300 mg/kg/day assessed as death after 8 days; assay type: organism-based; settings: in vivo, 192 h
[16] = tested on: Mus musculus; test: Toxicity in nude mouse at 150 mg/kg/day assessed as death after 8 days; assay type: organism-based; settings: in vivo, 192 h
[17] = tested on: NRK; test: Inhibition of tumor growth in CD1 nu/nu mouse implanted with rat K-ras transformed NRK K/1 cells at 150 mg/kg/day, ip after 8 days relative to control; assay type: functional; settings: 192 h, route intraperitoneal
[18] = tested on: NRK; test: Inhibition of tumor growth in CD1 nu/nu mouse implanted with rat K-ras transformed NRK K/1 cells at 300 mg/kg/day, ip after 8 days relative to control; assay type: functional; settings: 192 h, route intraperitoneal

NC1=CC(=O)c2ccc(-c3[nH]ccc4c5ccccc5nc3-4)nc2C1=O [DECARBOXYDEMETHYLLAVENDAMYCIN]
CC50 [1]: 0.25 µM | selectivity ratio [2]: 3.2 | selectivity ratio [3]: 0.4 | selectivity ratio [4]: 1.6 | CC50 [5]: 0.11 µM | MTD [6]: 400 mg/kg | selectivity ratio [7]: 0.9 | CC50 at 120 h [8]: 0.1 µM | CC50 [9]: 0.031 µM | CC50 [10]: 0.06 µM

CC(=O)NC1=CC(=O)c2ccc(C)nc2C1=O
CC50 [1]: 2 µM | CC50 [5]: 4.4 µM | MTD [6]: < 10 mg/kg | CC50 at 120 h [8]: 2.4 µM | CC50 [9]: 5.9 µM

COC(=O)c1[nH]c(-c2ccc3c(n2)C(=O)C(NC(C)=O)=CC3=O)c2nc3ccccc3c-2c1C
Activity [11]: Non-toxic | inhibition in vivo at 100 mg/kg/day [12]: 69% | CC50 [1]: > 33 µM | selectivity ratio [2]: 9 | selectivity ratio [3]: < 0.03 | CC50 [5]: 0.7 µM | Activity [13]: Non-toxic | Activity [14]: Non-toxic | selectivity ratio [7]: 1.3 | CC50 at 120 h [8]: 0.9 µM | CC50 [9]: 0.1 µM

CCCC(=O)NC1=CC(=O)c2ccc(C)nc2C1=O
CC50 [1]: 2.5 µM | CC50 [5]: > 3.3 µM | MTD [6]: < 10 mg/kg | CC50 at 120 h [8]: 2 µM | CC50 [9]: > 3.3 µM | CC50 [10]: > 3.3 µM

CC(=O)NC1=CC(=O)c2ccc(-c3nc(C(=O)OCCC(C)C)cc4c3[nH]c3ccccc34)nc2C1=O
Activity [15]: Non-toxic | CC50 [1]: 1.69 µM | selectivity ratio [2]: 18 | selectivity ratio [3]: 1 | Activity [16]: Non-toxic | inhibition in vivo at 150 mg/kg/day [17]: 88% | selectivity ratio [4]: 1.1 | CC50 [5]: 1.42 µM | selectivity ratio [7]: 1.1 | CC50 at 120 h [8]: 1.62 µM | CC50 [9]: 0.09 µM | CC50 [10]: 1.5 µM

CC(=O)NC1=CC(=O)c2ccc(-c3[nH]c(C(N)=O)cc4c5ccccc5nc3-4)nc2C1=O
CC50 [1]: 0.21 µM | selectivity ratio [2]: 2.5 | selectivity ratio [3]: 4.3 | selectivity ratio [4]: 4.1 | CC50 [5]: 0.23 µM | MTD [6]: 400 mg/kg | CC50 at 120 h [8]: 0.9 µM | CC50 [9]: 0.35 µM | CC50 [10]: 0.22 µM

CCCCCCCCOC(=O)c1cc2c([nH]c3ccccc32)c(-c2ccc3c(n2)C(=O)C(NC(C)=O)=CC3=O)n1
Activity [15]: Non-toxic | CC50 [1]: > 33 µM | selectivity ratio [2]: > 132 | Activity [16]: Non-toxic | inhibition in vivo at 300 mg/kg/day [18]: 78% | selectivity ratio [4]: 3.6 | CC50 [5]: 7.6 µM | selectivity ratio [7]: > 4.3 | CC50 at 120 h [8]: > 33 µM | CC50 [9]: 0.25 µM | CC50 [10]: 9 µM

CCCC(=O)NC1=CC(=O)c2ccc(C=O)nc2C1=O
CC50 [1]: 2.5 µM | CC50 [5]: 3.3 µM | MTD [6]: < 10 mg/kg | CC50 at 120 h [8]: 3 µM | CC50 [9]: > 3.3 µM | CC50 [10]: > 3.3 µM

CC(C)CCOC(=O)c1cc2c([nH]c3ccccc32)c(-c2ccc3c(n2)C(=O)C(NC(=O)CCl)=CC3=O)n1
CC50 [1]: 3.2 µM | selectivity ratio [2]: 2.4 | selectivity ratio [3]: 0.4 | selectivity ratio [4]: 1.1 | CC50 [5]: 1.32 µM | selectivity ratio [7]: 1 | CC50 at 120 h [8]: 1.35 µM | CC50 [9]: 0.56 µM | CC50 [10]: 1.2 µM
